{
  "source": "patent US5962408A",
  "about": "“Disulphide-cyclo-[H-Cys-Glu-Gln-Tyr-Cys-OH], and its use in blood-clotting disorders” (Nycomed Imaging AS, priority 1994, dated 1999)",
  "key": {"[1]": {"test_system": "TF-dependent arterial thrombogenesis", "test": "human ex vivo model of TF-dependent arterial thrombogenesis", "conditions": "around 1 mM final peptide/plasma concentration", "description": "Apart from the ability of the peptide disulphide-cyclo-[H-Cys-Glu-Gln-Tyr-Cys-OH] to inhibit the complex formation between FVIIa and TF in various biochemical assays, we have also found this peptide to be efficacious in a clinically relevant ex vivo model of TF/FVII-dependent arterial human thrombogenesis.\nThe efficacy of peptides was tested in a human ex vivo model of TF-dependent arterial thrombogenesis, essentially as described (K. S. Sakariassen et al., 1990, Arteriosclerosis, 10, 276; U. .O slashed.rvim et al., 1995, Arterioscl. Thromb. Vasc. Biol., in press). Human non-anticoagulated blood was drawn directly from an antecubital vein and mixed with peptide solution in a heparin-coated mixing device situated proximally to a perfusion chamber which contained a TF-coated coverslip (Thromborel S®). Blood flow was kept at 10 mL/min for 4 minutes, producing a shear rate of 650 s^-1, typical for small arteries."}, "[2]": {"test": "solubility in physiological media", "format": "physicochemical"}, "[3]": {"molecular_target": "T1, factor VIIa/tissue factor (Homo sapiens, UniProt P13726)", "T1 construct": "purchased American Diagnostica, Inc. (TF); Novo Nordisk A/S (FVIIa)", "T1 sequence (P13726 33-295)": "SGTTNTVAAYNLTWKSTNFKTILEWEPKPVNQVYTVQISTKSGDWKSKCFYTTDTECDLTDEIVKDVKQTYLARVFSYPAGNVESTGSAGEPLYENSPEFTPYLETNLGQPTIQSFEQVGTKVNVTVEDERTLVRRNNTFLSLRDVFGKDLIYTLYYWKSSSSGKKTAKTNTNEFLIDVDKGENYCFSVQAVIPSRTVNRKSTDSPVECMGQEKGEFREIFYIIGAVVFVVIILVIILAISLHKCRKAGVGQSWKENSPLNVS", "test": "two-stage chromogenic assay of factor VIIa/tissue factor-catalysed factor X activation", "format": "biochemical", "description": "This was determined using a two-stage chromogenic biochemical in vitro assay, essentially as described (A. Kumar et al., 1991, J. Biol. Chem., 266, 915). In short: peptides were pre-incubated with lipidated TF (5 pM; from American Diagnostica, Inc., Greenwich, Conn., USA) and calcium (5 mM) for 10 minutes prior to addition of FVIIa (5 pM; from Novo Nordisk A/S, Gentofte, Denmark) and FX (20 nM; from Enzyme Research Laboratory, South Bend, Ind., USA). Reactions were terminated by addition of EDTA (50 mM) and formation of FXa was monitored using the chromogenic FXa substrate S2765 (0.4 mM; from Chromogenix, Mondal, Sweden) and measuring the absorbance increase at 405 nm in a microtitre plate reader. The concentration for half-maximal inhibition (IC50) was determined from dose-inhibition curves."}, "[4]": {"test_system": "tissue factor-dependent plasma coagulation", "test": "one-stage in vitro tissue factor-dependent plasma coagulation assay", "format": "biochemical, human", "conditions": "end-capped peptide tested up to 1.5 mM", "description": "A one-stage in vitro coagulation assay was used as follows: peptides dissolved in 3-[N-morpholino]propane-sulphonic acid buffer (100 mM, pH 7.4) and NaCl (100 mM) were premixed with diluted (1:50 in saline) lipidated TF (Thromborel S®, Behringwerke AG, Marburg, Germany) and CaCl2 (5 mM final concentration) and the solutions were kept at 37° C. for 2 minutes. The coagulation reaction was initiated by addition of a thawed aliquot of frozen platelet-free human plasma pool (37° C.). The clotting-time for four replicate incubations were simultaneously determined automatically in an electromagnetic coagulometer (Thrombotrack 4, Nycomed Pharma AS, Oslo, Norway). The mean value for the clotting times determined from the replicate samples were converted to arbitrary TF units by a log-log calibration curve generated with Thromborel."}, "[5]": {"molecular_target": "binding of Factor VII to tissue factor (Homo sapiens, UniProt P13726)", "sequence (P13726 33-295)": "as above", "conditions": "reported in PCT/GB94/01315; cited from earlier work"}, "[6]": {"conditions": "mean±standard deviation, TF 5 pM, FVIIa 5 pM, FX 20 nM, read-out: IC50 (concentration for half-maximal inhibition of FXa formation)"}, "[7]": {"conditions": "summary values in the description, read-out: IC50 in the two-stage chromogenic assay of A. Kumar et al."}},
  "note": "“Also recorded” adds a separate entry of the source. Read-outs that look alike come from different tables or passages of the source. Positions of bridges follow the written chain, without caps; N, C: chain ends. Residues, ends and D or L forms follow the SMILES beside them.",
  "data": [
    {"compound": "H-YADKIEDTKL-OH [H-Tyr-Ala-Asp-Lys-Ile-Glu-Asp-Thr-Lys-Leu-OH]", "values": [
      {"measurement": "effect on thrombus formation", "setting": "[1]", "result": "no effect"}
    ]},
    {"compound": "NC(=O)CC[C@@H]1NC(=O)[C@H](CCC(=O)O)NC(=O)[C@@H](N)CSSC[C@@H](C(=O)O)NC(=O)[C@H](Cc2ccc(O)cc2)NC1=O", "note": "[disulphide-cyclo-[H-Cys-Glu-Gln-Tyr-Cys-OH]] (H-CEQYC-OH; disulfide 1-5)", "values": [
      {"measurement": "solubility properties in physiological media", "setting": "[2]", "result": "superior solubility properties; also recorded: freely soluble"},
      {"measurement": "IC50", "setting": "[3]; [6]", "result": "10.1 ± 5", "unit": "µM"},
      {"measurement": "IC50", "setting": "[3]; [7]", "result": 10, "unit": "µM"}
    ]},
    {"compound": "CC(=O)N[C@H]1CSSC[C@@H](C(N)=O)NC(=O)[C@H](Cc2ccc(O)cc2)NC(=O)[C@H](CCC(N)=O)NC(=O)[C@H](CCC(=O)O)NC1=O", "note": "[disulphide-cyclo-[Ac-Cys-Glu-Gln-Tyr-Cys-NH2 ]] (Ac-CEQYC-NH2; disulfide 1-5)", "values": [
      {"measurement": "effect on clotting time", "setting": "[4]", "result": "without any effect"},
      {"measurement": "solubility properties in physiological media", "setting": "[2]", "result": "poor solubility properties"},
      {"measurement": "highest testable concentration due to solubility", "setting": "[2]; coagulation assay buffer", "result": "ca. 1.5 mM"},
      {"measurement": "IC50", "setting": "[3]; [6]", "result": "265 ± 174", "unit": "µM"},
      {"measurement": "fold lower potency versus disulphide-cyclo-[H-Cys-Glu-Gln-Tyr-Cys-OH]", "setting": "[3]; same assay", "result": 26, "unit": "fold"},
      {"measurement": "IC50", "setting": "[3]; [7]", "result": "~200", "unit": "µM"},
      {"measurement": "inhibition of binding of Factor VII to tissue factor", "setting": "[5]", "result": "negligible"}
    ]}
  ]
}
